# Assay results reported in ChEMBL document CHEMBL5260813, “An overview on the recent developments of 1,2,4-triazine derivatives as anticancer compounds” (Eur J Med Chem, 2017).
# What was measured:
# BT-474 = test: Antiproliferative activity against human BT-474 cells assessed as inhibition of cell growth; assay type: functional, cell-based
# [1] = biological target: Epidermal growth factor receptor (Homo sapiens, UniProt P00533); test: Inhibition of EGFR (unknown origin)
# [2] = biological target: Vascular endothelial growth factor receptor 2 (Homo sapiens, UniProt P35968); test: Inhibition of VEGFR-2 (unknown origin)
# Chain of Vascular endothelial growth factor receptor 2 (P35968 whole entry): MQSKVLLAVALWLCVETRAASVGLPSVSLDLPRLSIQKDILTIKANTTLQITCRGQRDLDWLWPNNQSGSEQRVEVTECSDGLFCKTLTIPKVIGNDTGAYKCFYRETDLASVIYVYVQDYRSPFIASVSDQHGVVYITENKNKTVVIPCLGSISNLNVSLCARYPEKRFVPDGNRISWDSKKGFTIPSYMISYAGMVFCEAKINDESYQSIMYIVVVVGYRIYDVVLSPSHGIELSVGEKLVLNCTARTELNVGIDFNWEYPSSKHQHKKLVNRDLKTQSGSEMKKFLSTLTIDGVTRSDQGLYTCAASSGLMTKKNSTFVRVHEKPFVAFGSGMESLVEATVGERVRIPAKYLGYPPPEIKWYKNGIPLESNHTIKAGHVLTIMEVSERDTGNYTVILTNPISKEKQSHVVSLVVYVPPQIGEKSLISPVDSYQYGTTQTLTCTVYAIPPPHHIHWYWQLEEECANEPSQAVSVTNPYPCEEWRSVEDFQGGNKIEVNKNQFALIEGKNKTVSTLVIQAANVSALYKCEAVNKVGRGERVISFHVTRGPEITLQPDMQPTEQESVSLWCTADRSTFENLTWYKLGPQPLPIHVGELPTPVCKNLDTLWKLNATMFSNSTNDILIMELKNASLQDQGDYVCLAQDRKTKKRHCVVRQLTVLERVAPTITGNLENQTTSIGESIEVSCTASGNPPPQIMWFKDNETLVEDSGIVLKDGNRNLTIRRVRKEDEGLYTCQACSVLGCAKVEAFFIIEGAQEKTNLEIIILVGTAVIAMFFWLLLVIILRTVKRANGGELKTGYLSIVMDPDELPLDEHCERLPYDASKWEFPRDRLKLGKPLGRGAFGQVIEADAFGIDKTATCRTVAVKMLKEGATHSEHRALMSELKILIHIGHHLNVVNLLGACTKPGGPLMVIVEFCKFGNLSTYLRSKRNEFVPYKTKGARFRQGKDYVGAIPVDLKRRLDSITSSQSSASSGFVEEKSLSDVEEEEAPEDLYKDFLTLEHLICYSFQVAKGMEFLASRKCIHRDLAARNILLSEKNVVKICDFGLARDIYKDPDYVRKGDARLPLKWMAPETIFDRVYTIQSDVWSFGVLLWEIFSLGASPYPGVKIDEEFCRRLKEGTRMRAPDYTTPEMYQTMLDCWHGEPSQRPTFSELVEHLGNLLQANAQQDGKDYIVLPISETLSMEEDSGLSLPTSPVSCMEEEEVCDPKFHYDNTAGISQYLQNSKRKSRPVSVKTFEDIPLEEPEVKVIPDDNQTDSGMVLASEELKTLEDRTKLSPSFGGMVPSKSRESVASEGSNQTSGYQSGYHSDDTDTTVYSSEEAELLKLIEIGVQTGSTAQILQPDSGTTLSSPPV
# OVCAR-4 = test: Antiproliferative activity against human OVCAR-4 cells assessed as cell growth inhibition; assay type: functional, cell-based
# HepG2 = test: Antiproliferative activity against human HepG2 cells assessed as cell growth inhibition; assay type: functional, cell-based
# MCF7 [3] = test: Antiproliferative activity against human MCF7 cells assessed as inhibition of cell growth; assay type: functional, cell-based
# HCT-116 = test: Antiproliferative activity against human HCT-116 cells assessed as inhibition of cell growth; assay type: functional, cell-based
# HL-60 = test: Antiproliferative activity against human HL-60 cells assessed as inhibition of cell growth incubated for 72 hrs by MTT assay; assay type: functional, cell-based; details: HL-60, 72 h
# MCF7 [4] = test: Cytotoxicity against human MCF7 cells assessed as inhibition of cell growth incubated for 72 hrs by MTT assay; assay type: functional, cell-based; details: MCF7, 72 h
# MOLT-4 = test: Antiproliferative activity against human MOLT-4 cells assessed as inhibition of cell growth incubated for 72 hrs by MTT assay; assay type: functional, cell-based; details: MOLT-4, 72 h
# Chain of Epidermal growth factor receptor (P00533 whole entry): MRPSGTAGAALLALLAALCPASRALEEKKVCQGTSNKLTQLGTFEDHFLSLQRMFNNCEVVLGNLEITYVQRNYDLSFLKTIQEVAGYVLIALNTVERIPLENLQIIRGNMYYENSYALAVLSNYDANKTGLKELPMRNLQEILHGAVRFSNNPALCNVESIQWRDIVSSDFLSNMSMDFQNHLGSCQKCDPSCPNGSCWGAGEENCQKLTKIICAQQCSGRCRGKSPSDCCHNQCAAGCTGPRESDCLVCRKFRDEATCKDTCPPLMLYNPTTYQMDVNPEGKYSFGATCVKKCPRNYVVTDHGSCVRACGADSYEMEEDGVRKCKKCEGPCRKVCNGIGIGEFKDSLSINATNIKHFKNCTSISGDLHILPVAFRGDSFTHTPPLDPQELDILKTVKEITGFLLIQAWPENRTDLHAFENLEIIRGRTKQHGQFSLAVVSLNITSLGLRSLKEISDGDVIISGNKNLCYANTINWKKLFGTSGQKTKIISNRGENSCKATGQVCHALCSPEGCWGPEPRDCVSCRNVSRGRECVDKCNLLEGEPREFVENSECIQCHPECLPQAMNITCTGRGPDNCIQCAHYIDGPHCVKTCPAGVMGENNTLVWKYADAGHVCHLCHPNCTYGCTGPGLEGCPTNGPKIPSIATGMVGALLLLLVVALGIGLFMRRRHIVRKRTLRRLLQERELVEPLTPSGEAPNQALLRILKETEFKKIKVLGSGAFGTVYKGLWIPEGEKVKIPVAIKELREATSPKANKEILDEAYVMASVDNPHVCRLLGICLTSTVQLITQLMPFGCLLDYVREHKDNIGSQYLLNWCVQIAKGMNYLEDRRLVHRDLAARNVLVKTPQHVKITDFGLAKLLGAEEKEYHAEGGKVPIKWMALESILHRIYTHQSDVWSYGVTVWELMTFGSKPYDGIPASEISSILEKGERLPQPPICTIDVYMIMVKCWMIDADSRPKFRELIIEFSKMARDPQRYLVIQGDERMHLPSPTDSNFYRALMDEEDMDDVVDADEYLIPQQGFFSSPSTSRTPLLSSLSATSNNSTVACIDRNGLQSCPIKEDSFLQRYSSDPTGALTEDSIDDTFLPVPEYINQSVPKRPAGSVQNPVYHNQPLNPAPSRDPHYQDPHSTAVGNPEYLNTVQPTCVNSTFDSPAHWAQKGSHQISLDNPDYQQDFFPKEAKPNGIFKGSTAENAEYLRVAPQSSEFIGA
structure (smiles),measurement,setting,value
CCCc1nc2c(=O)n(C)c(=O)nc-2n(C)n1,IC50,BT-474,0.9 µM
Cn1nc(Cc2ccccc2)nc2c(=O)n(C)c(=O)nc1-2,IC50,BT-474,0.9 µM
CCn1nc(-c2ccccc2)nc2c(=O)n(C)c(=O)nc1-2,IC50,BT-474,0.9 µM
Cn1nc(-c2ccccc2)nc2c(=O)n(C)c(=O)nc1-2,IC50,BT-474,0.9 µM
Cc1cc2c(Nc3ccc(C)c(O)c3)ncnn2c1,IC50,[1],0.405 µM
same,IC50,[2],0.654 µM
Cc1ccc(Nc2ncnn3cccc23)cc1O,IC50,[1],1.44 µM
same,IC50,[2],0.51 µM
Cc1ccc(Nc2ncnn3cc(C)c(C)c23)cc1O,IC50,[1],0.023 µM
same,IC50,[2],0.2 µM
Cc1ccc(Nc2ncnn3ccc(C)c23)cc1O,IC50,[1],0.066 µM
same,IC50,[2],0.346 µM
Cc1c(-c2ccccc2)c(C#N)c2nnc(C(N)=O)c(N)n12,IC50,OVCAR-4,2.77 µM
CCOC(=O)c1nnc2c(C#N)c(-c3ccccc3)c(C)n2c1N,IC50,OVCAR-4,2.77 µM
O=c1c(/C=C/c2cccs2)nnc(S)n1NC(=S)Nc1ccccc1,IC50,HepG2,8.79 µM
same,IC50,MCF7 [3],8.79 µM
same,IC50,HCT-116,8.79 µM
O=c1c(/C=C/c2cccs2)nnc(S)n1/N=C/c1cccs1,IC50,HepG2,8.79 µM
same,IC50,MCF7 [3],8.79 µM
same,IC50,HCT-116,8.79 µM
Clc1ccc(CSc2nnc3c(n2)-c2cccc4cccc-3c24)cc1,IC50,HL-60,30 µM
same,IC50,MCF7 [4],30 µM
same,IC50,MOLT-4,30 µM
CCOC(=O)c1nnc2c(C#N)c(C)c(-c3ccccc3)n2c1N,IC50,OVCAR-4,2.77 µM
Nn1c(S)nnc(/C=C/c2cccs2)c1=O,IC50,HepG2,8.79 µM
same,IC50,MCF7 [3],8.79 µM
same,IC50,HCT-116,8.79 µM
O=C1CN2C(=O)/C(=C/c3ccc([N+](=O)[O-])cc3)N=C(c3ccccc3)N2C(=S)N1,IC50,HepG2,2.67 µM
O=c1c(/C=C/c2cccs2)nnc(S)n1/N=C/c1ccccc1,IC50,HepG2,8.79 µM
same,IC50,MCF7 [3],8.79 µM
same,IC50,HCT-116,8.79 µM
Cc1c(C#N)c2nnc(C#N)c(N)n2c1-c1ccccc1,IC50,OVCAR-4,2.77 µM
CSc1nnc2c(n1)-c1cccc3cccc-2c13,IC50,HL-60,30 µM
same,IC50,MCF7 [4],30 µM
same,IC50,MOLT-4,30 µM
CC(=O)c1nnc2c(C#N)c(C)c(-c3ccccc3)n2c1C,IC50,OVCAR-4,2.77 µM
O=[N+]([O-])c1ccccc1CSc1nnc2c(n1)-c1cccc3cccc-2c13,IC50,HL-60,30 µM
same,IC50,MCF7 [4],30 µM
same,IC50,MOLT-4,30 µM
CCSc1nnc2c(n1)-c1cccc3cccc-2c13,IC50,HL-60,30 µM
same,IC50,MCF7 [4],30 µM
same,IC50,MOLT-4,30 µM
Nn1c(SC2Sc3nnc(/C=C/c4cccs4)c(=O)n3NC2=O)nnc(/C=C/c2cccs2)c1=O (stereo not given),IC50,HepG2,8.79 µM
same,IC50,MCF7 [3],8.79 µM
same,IC50,HCT-116,8.79 µM
CC(=O)Nn1c(S)nnc(/C=C/c2cccs2)c1=O,IC50,HepG2,8.79 µM
same,IC50,MCF7 [3],8.79 µM
same,IC50,HCT-116,8.79 µM
Clc1ccc(CSc2nnc3c(n2)-c2cccc4cccc-3c24)cc1Cl,IC50,HL-60,30 µM
same,IC50,MCF7 [4],30 µM
same,IC50,MOLT-4,30 µM
Cc1c(-c2ccccc2)c(C#N)c2nnc(C#N)c(N)n12,IC50,OVCAR-4,2.77 µM
c1ccc(CSc2nnc3c(n2)-c2cccc4cccc-3c24)cc1,IC50,HL-60,30 µM
same,IC50,MCF7 [4],30 µM
same,IC50,MOLT-4,30 µM
Clc1ccc(CSc2nnc3c(n2)-c2cccc4cccc-3c24)c(Cl)c1,IC50,HL-60,30 µM
same,IC50,MCF7 [4],30 µM
same,IC50,MOLT-4,30 µM
CCn1nc(-c2cccs2)nc2c(=O)n(C)c(=O)nc1-2,IC50,BT-474,0.9 µM
Cc1nc2c(=O)n(C)c(=O)nc-2n(C)n1,IC50,BT-474,0.9 µM
